ChEMBL document CHEMBL1681656, “Design and synthesis of AApeptides: a new class of peptide mimics” (Bioorg Med Chem Lett, 2011)
pIC50: −log10 of the molar value.

What was measured:
[1] = Inhibition of GST-MDM2/His6-p53 interaction expressed in Escherichia coli after 1 hr by ELISA
[2] = Chemical stability of the compound assessed as enzymatic hydrolysis in ammonium bicarbonate buffer at pH 7.8 after 24 hrs in presence of trypsin; assay type: physicochemical; conditions: isolated protein, pH 7.8, 24 h
[3] = Chemical stability of the compound assessed as enzymatic hydrolysis in ammonium bicarbonate buffer at pH 7.8 after 24 hrs in presence of pronase; assay type: physicochemical; conditions: pH 7.8, 24 h
[4] = Chemical stability of the compound assessed as enzymatic hydrolysis in ammonium bicarbonate buffer at pH 7.8 after 24 hrs in presence of chymotrypsin; assay type: physicochemical; conditions: isolated protein, pH 7.8, 24 h

Row | pIC50 [1] | Stability [2] | Stability [3] | Stability [4] | Structure (SMILES)
1 | < 3.00 |  |  |  | CCC(=O)N(CCNC(=O)[C@H](Cc1c[nH]c2ccccc12)N(CCNC(=O)[C@H](Cc1ccccc1)N(CCNC(=O)[C@H](C)N(CCN)C(=O)CC(C)C)C(=O)CC)C(=O)CCO)[C@H](C(N)=O)C(C)C
2 | 5.06 |  |  |  | CC(=O)N[C@@H](CCC(N)=O)C(=O)N[C@@H](CCC(=O)O)C(=O)N[C@H](C(=O)N[C@@H](Cc1ccccc1)C(=O)N[C@@H](CO)C(=O)N[C@@H](CC(=O)O)C(=O)N[C@@H](CC(C)C)C(=O)N[C@@H](Cc1c[nH]c2ccccc12)C(=O)N[C@@H](CCCCN)C(=O)N[C@@H](CC(C)C)C(=O)N[C@@H](CC(C)C)C(=O)N1CCC[C@H]1C(=O)O)[C@@H](C)O
3 | 4.42 |  |  |  | CCC(=O)N(CCNC(=O)[C@H](CC(C)C)N(CCNC(=O)[C@H](Cc1c[nH]c2ccccc12)N(CCNC(=O)[C@H](Cc1ccccc1)N(CCNC(=O)[C@H](C)N(CCN)C(=O)CC)C(=O)CC)C(=O)CCO)C(=O)CC)[C@@H](C)C(N)=O

The next lines start with the compound.

Row | Structure (SMILES) | pIC50 [1] | Stability [2] | Stability [3] | Stability [4]
4 | CCC(=O)N(CCNC(=O)[C@H](CC(C)C)N(CCNC(=O)[C@H](Cc1c[nH]c2ccccc12)N(CCNC(=O)[C@H](Cc1ccccc1)N(CCN)C(=O)CC)C(=O)CCO)C(=O)CC)[C@@H](C)C(N)=O | 3.92 |  |  | 
5 | CCC(=O)N(CCNC(=O)[C@H](CC(C)C)N(CCNC(=O)[C@H](Cc1c[nH]c2ccccc12)N(CCNC(=O)[C@H](Cc1ccccc1)N(CCNC(=O)[C@H](C)N(CCN)C(=O)CC)C(=O)CC)C(=O)CCO)C(=O)CCc1ccccc1)[C@@H](C)C(N)=O | 3.92 | Stable | Stable | Stable
